Data as given in PubChem BioAssay AID1576 (EPA DSSTox, 2009).
Activity calls are given as the source filed them.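 The calls were made as follows: active = chemicals shown by follow-up kinetic tests to compete for rat estrogen receptor sites, with a measured inhibition constant; inconclusive = some binding seen but constant unmeasurable owing to poor solubility; inactive = no binding up to top dose, or binding unconfirmed.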

These molecules were tested against Estrogen receptor (Rattus norvegicus) (UniProt P06211) (assay: DSSTox (KIERBL) EPA Estrogen Receptor Ki Binding Study (Laws et al.) Database). Details: Rat uterine cytosol ER, 3H-estradiol competitive binding.
Sequence of Estrogen receptor (Rattus norvegicus) (P06211 whole entry, looked up): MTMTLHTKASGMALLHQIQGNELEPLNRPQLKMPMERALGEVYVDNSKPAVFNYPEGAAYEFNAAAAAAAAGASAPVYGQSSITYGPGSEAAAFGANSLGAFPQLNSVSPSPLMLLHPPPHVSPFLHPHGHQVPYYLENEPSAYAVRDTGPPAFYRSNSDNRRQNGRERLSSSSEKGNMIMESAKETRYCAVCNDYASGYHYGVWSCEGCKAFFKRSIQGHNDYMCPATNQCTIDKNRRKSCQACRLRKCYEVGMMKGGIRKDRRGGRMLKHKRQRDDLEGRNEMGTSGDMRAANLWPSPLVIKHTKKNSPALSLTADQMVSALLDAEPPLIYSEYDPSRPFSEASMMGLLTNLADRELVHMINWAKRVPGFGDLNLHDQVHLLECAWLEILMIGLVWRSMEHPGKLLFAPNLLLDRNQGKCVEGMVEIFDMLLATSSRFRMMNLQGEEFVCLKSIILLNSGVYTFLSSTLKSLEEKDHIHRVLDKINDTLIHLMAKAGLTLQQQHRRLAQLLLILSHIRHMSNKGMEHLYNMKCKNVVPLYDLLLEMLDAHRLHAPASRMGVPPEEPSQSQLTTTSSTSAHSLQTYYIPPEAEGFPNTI
Experimental: This study was conducted by EPA researchers to evaluate the validity of the rat uterine cytosolic (RUC) estrogen receptor (ER) competitive binding assay for use in the Endocrine Disruption Screening Program (EDSP). The assay measures the ability of radiolabeled 17-beta-estradiol (3H-E2) to bind with RUC ER in the presence of increasing concentrations of a test chemical. The goal is to employ this in vitro assay as a 1st tier screening tool for assessing the potential of structurally diverse environmental chemicals to bind to the ER, as well as to support research efforts to develop computational models to predict ER binding. A distinguishing feature of the present study was the use of secondary experimental analysis of binding curves and determination of Ki values to confirm that measured IC50 values corresponded to true positive results. The study concluded that a number of experimental conditions can confound interpretation of IC50 values obtained from the RUC ER-binding assay data and lead to false positive results. In particular, some chemical treatments likely alter the stability of the assay by changing the buffer pH, denaturing ER, or disrupting the ER binding kinetics. […] The chemicals used in this study were selected as part of a validation test for two Quantitative Structure-Activity Relationship (QSAR) models designed to predict ER binding [Fed. Reg. 67(250), 79618, Dec. 30, 2002]. Several hundred chemicals were initially screened, including approximately 100 chemicals selected from among the High Production Volume (HPV) chemicals included in EPA's Toxic Substances Control Act (TSCA) inventory that were predicted to be positive for ER binding, with the rest selected at random from the TSCA inventory. All chemicals were initially tested in ER competitive binding assays by Battelle Pacific Northwest Laboratories, Richland, Washington [EPA Contract Number 68-W-99-033, Task 6]. Approximately 50 chemicals produced binding curves that: (1) strongly implied competitive inhibition of ER binding, or (2) produced partial curves or irregular (non-sigmoid) binding curves. These chemicals were further evaluated in an ER competitive binding assay with secondary analysis to confirm true competitive inhibition and to determine an experimental Ki [U.S. EPA Contract 3D-5967-NTEX]. The results of RUC ER screening for these 50 structurally diverse chemicals, for which secondary confirmatory analyses were performed, were published in the Main Citation (Laws et al., 2006, Tox. Sci. 94:46-56). The remaining 228 chemicals were designated as non-binders based on initial screening studies.
The DSSTox KIERBL data files include all published IC50 and Ki experimental results for the 50 chemicals included in the Main Citation (Laws et al., 2006) (denoted Group 1), as well as previously unpublished results for an additional 228 structually diverse TSCA chemicals for which no ER binding was observed (denoted Group 2. IC50 values were determined for 32 compounds in Group 1 as the concentration of a test chemical that inhibits the maximal specific binding of 0.33 nM radiolabeled (3H) 17-beta-estradiol (E2) to rat uterine cytosolic (RUC) estrogen receptor (ER) by 50%. Confirmation of binding status was accomplished by secondary analysis using Lineweaver-Burk plots and slope replots to determine true competitive inhibition and an experimental Ki value. Ki is the inhibition constant for the test chemical, i.e., the concentration of the test chemical that will bind to half the binding sites at equilibrium (displacing half of the probe-bound receptors), in the absence of radioligand or other competitors. Ki reported as Mean +/- Standard Error from n=2 experiments (see StandardError_Ki_n2) and is determined from Lineweaver-Burk plots over the tested dose range (TestedRange_microM). For more information see BindingCurve_Group and BindingCurve_Details. […]

Compound | outcome
CCCCCCCCCCCCCCCCCCOC(=O)CCc1cc(C(C)(C)C)c(O)c(C(C)(C)C)c1 | inactive; none
O=C(Oc1cccc(O)c1)c1ccccc1 | inactive; none
O=CCCl | inactive; none
C=CC(=O)OCCC(F)(F)C(F)(F)C(F)(F)C(F)(F)C(F)(F)C(F)(F)F | inactive; none
OCC1CC2C=CC1C2 (stereo not given) | inactive; none
CC1CCCCN1CCCOC(=O)c1ccc(Cl)c(Cl)c1 (stereo not given) | inactive; none
N#CCCSCCC#N | inactive; none
COc1ccc(C(=O)c2ccc(OC)cc2O)c(O)c1 | inactive; none
CO[Si](CCCNCCC[Si](OC)(OC)OC)(OC)OC | inactive; none
NNC(=O)NN | inactive; none
CCO[Si](C)(CCCN)OCC | inactive; none
CC(c1cc(C(C)(C)C)cc(C(C)(C)C)c1O)c1cc(C(C)(C)C)cc(C(C)(C)C)c1O | inactive; none
CN(C)Cc1cc(CN(C)C)c(O)c(CN(C)C)c1 | inactive; none
c1ccc(CNc2ncnc3c2ncn3C2CCCCO2)cc1 (stereo not given) | inactive; none
CNC(=O)Oc1ccccc1OC(C)C | inactive; none
O=C1OC2(c3ccc(O)cc3Oc3cc(O)ccc32)c2ccccc21 | inactive; none
COCCOC(=O)CC#N | inactive; none
c1ccc(-c2ccccc2)cc1 | inactive; none
CCN=C1C=CC(=C(c2ccc(N(CC)CC)cc2)c2ccc(N(CC)CC)cc2)c2ccccc21 | inactive; none
Cc1ccc(C(=O)c2ccccc2)cc1 | inactive; incomplete
Cc1cc[cH-]c1.[C-]#[O+].[C-]#[O+].[C-]#[O+].[Mn] | inactive; none
CCCCS | inactive; none

Compound | outcome
ClCC1OCCO1 | inactive; none
CCN(CC)c1ccc(N)c(C)c1 | inactive; none
C=C(C)c1ccc(C(=C)C)cc1 | inactive; none
NC(=O)c1ccc(N)cc1 | inactive; none
CC1COc2ccccc2N1C(=O)C(Cl)Cl (stereo not given) | inactive; none
C=CC(=O)OCCC(C)OC(=O)C=C (stereo not given) | inactive; none
CC(O)C(=O)O (stereo not given) | inactive; none
Nc1ccc(/C=C/c2ccc(N)cc2S(=O)(=O)O)c(S(=O)(=O)O)c1 | inactive; none
CCOC(=O)C(CC)C(=O)OCC | inactive; none
Cc1cccc[n+]1[O-] | inactive; none
CC(=O)CC(=O)N(C)C | inactive; none
CSc1ccc(C(=O)C(C)(C)N2CCOCC2)cc1 | inactive; none
N#CCC(=O)O | inactive; none
O=C(O)CC(O)(CC(=O)O)C(=O)O | inactive; none
CC(CO)c1ccccc1 (stereo not given) | inactive; incomplete
CCCCOCCCOC(=O)COc1ccc(Cl)cc1Cl | inactive; none
COc1ccc(C=O)cc1OC | inactive; incomplete
CCOC(=O)c1ccccc1 | inactive; none
O=C(Oc1ccccc1)c1ccccc1O | inactive; incomplete
Cc1cccc(C(=O)O)c1O | inactive; none
O=C(O)c1cc(O)c2ccccc2c1O | inactive; incomplete
CC(C)(C)[Si](C)(C)Cl | inactive; none

Compound | outcome
CCO[Si](CCCCl)(OCC)OCC | inactive; none
O=S(=O)(O)c1ccc(N=Nc2c(O)ccc3ccccc23)cc1 | inactive; none
O=C(Nc1ccc(Cl)cc1)Nc1ccc(Cl)c(Cl)c1 | inactive; none
CCN(CCO)c1ccc(N=Nc2ccc([N+](=O)[O-])cc2Cl)cc1 | inactive; none
C1=CCCCC1 | inactive; none
CC(C)N | inactive; none
O=Cc1ccc(F)cc1 | inactive; none
N#Cc1cc([N+](=O)[O-])ccc1N | inactive; none
C=CC(=O)OCCOCCOC(=O)C=C | inactive; none
OCCOCCOCCO | inactive; none
O=S(=O)(O)c1ccccc1Nc1ccc(C(=C2C=CC(=Nc3ccccc3)C=C2)c2ccc(Nc3ccccc3)cc2)cc1 | inactive; none
O=C(Nc1ccccc1)c1cc(Cl)ccc1O | inactive; incomplete
CCCCCCOC(=O)c1ccccc1C(=O)OCCCCCC | inactive; none
CCOP(=S)(OCC)SCn1c(=O)oc2cc(Cl)ccc21 | inactive; none
CC(C)COC(=O)C(C)C | inactive; none
O=NN(c1ccccc1)c1ccccc1 | inactive; none
CC(C)(C)c1cc(-n2nc3ccc(Cl)cc3n2)c(O)c(C(C)(C)C)c1 | inactive; none
OC1CCCCC1 | inactive; none
OC1OCCOC1O (stereo not given) | inactive; none
CC(C)c1ccc2cc(C(C)C)ccc2c1 | inactive; none
CCN(CC)c1nc(C)cc(OP(=S)(OC)OC)n1 | inactive; none
CCCCCCCCCCCCCCCCCCN=C=O | inactive; none

Compound | outcome
Oc1ccc2ccccc2c1N=Nc1ccccc1 | inactive; none
CC1=CC(=C(c2ccc(N)cc2)c2ccc(N)cc2)C=CC1=N | inactive; none
CCCCN(CCCC)C(=S)[S-].CCCCN(CCCC)C(=S)[S-].[Ni+2] | inactive; none
CCCCCCOC(C)=O | inactive; none
O=C(n1ccnc1)n1ccnc1 | inactive; none
CCCCCCCC(=O)OCC(COC(=O)CCCCCCC)OC(=O)CCCCCCC | inactive; none
O=C1OS(=O)(=O)c2ccccc21 | inactive; none
CCCCCCCCCC#N | inactive; none
CCC[CH2][Sn]([CH2]CCC)([CH2]CCC)[O][Sn]([CH2]CCC)([CH2]CCC)[CH2]CCC | inactive; none
CC(C)(C)c1cc(Cc2cc(C(C)(C)C)c(O)c(C(C)(C)C)c2)cc(C(C)(C)C)c1O | inactive; none
COc1ccccc1NC(=O)c1cc2ccccc2cc1O | inactive; none
CCCCCCC(=O)O | inactive; none
c1ccsc1 | inactive; none
C1CCC(NC2CCCCC2)CC1 | inactive; none
Cc1cc(C)c(C)cc1C | inactive; none
CC(C)(C)c1cc(C(C)(C)c2ccc(O)c(C(C)(C)C)c2)ccc1O | inactive; incomplete
CCO[Si](CCCN=C=O)(OCC)OCC | inactive; none
C(CCOCC1CO1)COCC1CO1 (stereo not given) | inactive; none
CO[Si](CCCCl)(OC)OC | inactive; none

Same assay, conditions: Rat uterine cytosol ER, 3H-estradiol competitive binding; TestedRange_microM: 0.6-1.2

Compound | Potency [µM]
CC(C)CCCCCCc1ccc(O)cc1 | 0.6

Same assay, conditions: Rat uterine cytosol ER, 3H-estradiol competitive binding; TestedRange_microM: 2.5-7.5

Compound | Potency [µM]
Oc1ccc(C(c2ccc(O)cc2)(C(F)(F)F)C(F)(F)F)cc1 | 1.9

Same assay, conditions: Rat uterine cytosol ER, 3H-estradiol competitive binding; TestedRange_microM: 10-100

Compound | Potency [µM] | outcome
COC(OC)(C(=O)c1ccccc1)c1ccccc1 | 136 | –
CCCCCCCCCCCCCCCCCC[N+](C)(C)C | – | inactive; irregular
O=S(=O)(c1ccc(O)cc1)c1ccc(O)cc1 | 82.4 | –

Same assay, conditions: Rat uterine cytosol ER, 3H-estradiol competitive binding; TestedRange_microM: 20-70

Compound | Potency [µM]
CC(c1ccc(O)cc1)(c1ccc(O)cc1)c1ccc(O)cc1 | 18.3

Same assay, conditions: Rat uterine cytosol ER, 3H-estradiol competitive binding; TestedRange_microM: 25-75

Compound | Potency [µM]
CC(C)(c1ccc(O)cc1)c1ccc(O)cc1 | 24.8

Same assay, conditions: Rat uterine cytosol ER, 3H-estradiol competitive binding; TestedRange_microM: 30-200

Compound | outcome | Potency [µM]
O=C(Nc1ccc(Cl)c(Cl)c1)Nc1cc(Cl)ccc1Oc1ccc(Cl)cc1S(=O)(=O)O | inactive; partial | –
Cc1cc(O)ccc1Cl | – | 373

Same assay, conditions: Rat uterine cytosol ER, 3H-estradiol competitive binding; TestedRange_microM: 44-178

Compound | Potency [µM]
CCCCCCCc1ccc(O)cc1 | 177
